Source: patent publication US20160122342A1, “ENHANCER OF ZESTE HOMOLOG 2 INHIBITORS” (GLAXOSMITHKLINE INTELLECTUAL PROPERTY (NO.2) LIMITED, priority 2013, published 2016)
Where a name gives a salt, the structure may show the parent alone.

Tests used:
[1] = biological target: T1, EZH2 within the PRC2 complex (Homo sapiens, UniProt Q15910); experiment: Assay Protocol 1: EZH2 methyltransferase scintillation proximity assay, mononucleosome substrate; format: biochemical; conditions: Assay Protocol 1; SPA, 3H-SAM, Histone H3 of mononucleosome purified from HeLa cells; 5-member PRC2 complex; read-out: EZH2 IC50
T1 construct: FLAG; made in house; host or cells: Sf9 cells
T1 sequence (Q15910 whole entry): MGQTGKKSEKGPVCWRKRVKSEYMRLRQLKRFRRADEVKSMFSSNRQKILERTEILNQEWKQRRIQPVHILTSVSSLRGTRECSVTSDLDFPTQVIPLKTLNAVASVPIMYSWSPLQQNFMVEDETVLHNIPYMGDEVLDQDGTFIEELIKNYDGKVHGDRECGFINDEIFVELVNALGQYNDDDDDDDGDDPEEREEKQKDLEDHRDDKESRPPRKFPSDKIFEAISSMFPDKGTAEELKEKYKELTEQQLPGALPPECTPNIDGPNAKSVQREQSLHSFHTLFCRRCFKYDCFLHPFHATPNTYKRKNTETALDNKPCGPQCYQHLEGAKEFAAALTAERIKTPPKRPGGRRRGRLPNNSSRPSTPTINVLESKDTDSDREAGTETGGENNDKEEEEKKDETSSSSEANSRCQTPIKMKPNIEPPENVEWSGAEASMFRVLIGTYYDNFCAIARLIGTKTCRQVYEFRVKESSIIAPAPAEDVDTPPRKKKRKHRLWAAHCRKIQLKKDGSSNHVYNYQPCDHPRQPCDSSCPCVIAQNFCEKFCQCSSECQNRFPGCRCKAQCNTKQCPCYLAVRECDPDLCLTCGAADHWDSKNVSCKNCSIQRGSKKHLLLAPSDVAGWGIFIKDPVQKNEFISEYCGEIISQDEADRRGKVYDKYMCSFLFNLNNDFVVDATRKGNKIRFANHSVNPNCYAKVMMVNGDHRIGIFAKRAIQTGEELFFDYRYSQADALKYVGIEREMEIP
T1 sequence (O75530 whole entry partner): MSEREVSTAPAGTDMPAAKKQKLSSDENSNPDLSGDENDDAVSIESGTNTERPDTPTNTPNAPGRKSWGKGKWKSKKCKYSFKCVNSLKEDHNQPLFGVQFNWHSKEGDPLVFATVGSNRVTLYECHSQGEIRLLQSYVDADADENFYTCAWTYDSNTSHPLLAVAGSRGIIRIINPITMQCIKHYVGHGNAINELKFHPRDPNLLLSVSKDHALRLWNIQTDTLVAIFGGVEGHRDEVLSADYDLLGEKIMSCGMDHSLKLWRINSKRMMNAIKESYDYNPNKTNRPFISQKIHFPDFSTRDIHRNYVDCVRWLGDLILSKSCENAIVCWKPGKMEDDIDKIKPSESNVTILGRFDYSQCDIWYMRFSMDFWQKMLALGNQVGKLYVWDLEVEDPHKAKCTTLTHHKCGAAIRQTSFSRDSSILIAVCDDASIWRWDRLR
T1 sequence (Q15022 whole entry partner): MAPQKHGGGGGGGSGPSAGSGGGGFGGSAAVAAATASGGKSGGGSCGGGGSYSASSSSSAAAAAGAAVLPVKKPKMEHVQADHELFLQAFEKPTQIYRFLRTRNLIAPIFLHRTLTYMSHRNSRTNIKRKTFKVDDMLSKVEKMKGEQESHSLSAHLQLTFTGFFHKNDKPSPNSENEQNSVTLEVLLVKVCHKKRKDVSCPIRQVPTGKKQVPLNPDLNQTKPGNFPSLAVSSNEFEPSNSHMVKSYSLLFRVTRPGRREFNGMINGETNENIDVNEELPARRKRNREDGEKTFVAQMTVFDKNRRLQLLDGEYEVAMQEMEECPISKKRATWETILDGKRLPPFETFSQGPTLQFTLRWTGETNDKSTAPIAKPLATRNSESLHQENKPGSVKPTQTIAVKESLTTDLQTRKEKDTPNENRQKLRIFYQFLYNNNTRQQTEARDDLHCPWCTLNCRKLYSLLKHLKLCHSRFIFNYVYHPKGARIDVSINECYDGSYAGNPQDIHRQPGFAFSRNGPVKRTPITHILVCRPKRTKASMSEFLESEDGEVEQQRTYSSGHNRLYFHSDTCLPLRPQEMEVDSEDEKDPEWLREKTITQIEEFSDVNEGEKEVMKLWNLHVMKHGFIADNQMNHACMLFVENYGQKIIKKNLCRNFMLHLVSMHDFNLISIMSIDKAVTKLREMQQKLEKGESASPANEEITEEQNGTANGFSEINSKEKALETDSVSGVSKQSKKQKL
T1 sequence (Q09028 whole entry partner): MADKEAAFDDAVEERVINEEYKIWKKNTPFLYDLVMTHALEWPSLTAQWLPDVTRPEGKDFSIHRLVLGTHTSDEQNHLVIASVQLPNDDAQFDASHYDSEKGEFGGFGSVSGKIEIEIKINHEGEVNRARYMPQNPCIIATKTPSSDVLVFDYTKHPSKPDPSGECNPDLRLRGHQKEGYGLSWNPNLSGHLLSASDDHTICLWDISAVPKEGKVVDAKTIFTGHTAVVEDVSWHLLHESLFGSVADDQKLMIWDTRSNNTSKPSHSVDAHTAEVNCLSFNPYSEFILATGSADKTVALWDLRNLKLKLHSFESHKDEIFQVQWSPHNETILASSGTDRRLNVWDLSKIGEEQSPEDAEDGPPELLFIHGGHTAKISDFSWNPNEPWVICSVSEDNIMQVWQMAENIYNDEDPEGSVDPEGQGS
T1 sequence (Q6ZN18 whole entry partner): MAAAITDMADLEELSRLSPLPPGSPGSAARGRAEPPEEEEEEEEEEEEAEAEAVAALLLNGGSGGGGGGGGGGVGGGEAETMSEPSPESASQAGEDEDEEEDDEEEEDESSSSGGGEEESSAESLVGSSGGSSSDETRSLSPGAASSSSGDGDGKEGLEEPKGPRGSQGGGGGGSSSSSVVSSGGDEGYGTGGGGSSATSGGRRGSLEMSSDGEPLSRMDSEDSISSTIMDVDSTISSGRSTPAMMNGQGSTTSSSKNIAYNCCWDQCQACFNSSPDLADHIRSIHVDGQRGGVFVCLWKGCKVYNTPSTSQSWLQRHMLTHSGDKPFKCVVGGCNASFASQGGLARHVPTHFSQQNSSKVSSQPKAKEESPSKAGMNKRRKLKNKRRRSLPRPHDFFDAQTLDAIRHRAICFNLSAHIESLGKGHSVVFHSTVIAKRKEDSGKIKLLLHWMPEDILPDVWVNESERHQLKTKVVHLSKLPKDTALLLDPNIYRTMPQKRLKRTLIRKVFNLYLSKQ
Experimental: Compounds contained herein were evaluated for their ability to inhibit the methyltransferase activity of EZH2 within the PRC2 complex. […] Mononucleosomes were captured on SPA beads and the resulting signal is read on a ViewLux plate reader. • 1. Prepare 10 mM stock of compounds from solid in 100% DMSO. • 2. […] Dispense 100 nL of compound from the dilution plate into reaction plates (Grenier Bio-One, 384-well, Cat#784075). Prepare the following solutions: • 1. 50 mM Tris-HCl, pH 8: Per 1 L of base buffer, combine 1 M Tris-HCl, pH 8 (50 mL) and distilled water (950 mL). • 2. 1× Assay Buffer: […] SPA Bead Suspension: […] Per 10 mL of 2× Substrate Solution, combine 1× Assay Buffer (9728.55 uL), 800 ug/mL mononucleosomes (125 uL), 1 mM cold SAM (4 uL), and 7.02 uM 3H-SAM (142.45 uL; 0.55 mCi/mL) to provide a final concentration of 5 ug/mL nucleosomes, 0.2 uM cold SAM, and 0.05 uM 3H-SAM. • 6. 2.67× Quench/Bead Mixture: Per 10 mL of 2.67× Quench/Bead Mixture, combine ddH2O (9358 uL), 10 mM cold SAM (267 uL), 40 mg/mL Bead Suspension (375 uL) to provide a final concentration of 100 uM cold SAM and 0.5 mg/mL SPA beads. • 1. Dispense 100 nL/well of 100× Compound to test wells (as noted above). • 2. […] • 1. Dispense 5 uL/well of 1× Assay Buffer to column 18 (low control reactions). • 2. Dispense 5 uL/well of 2× Enzyme Solution to columns 1-17, 19-24. • 3. Spin assay plates for ˜1 minute at 500 rpm. • 4. Stack the assay plates, covering the top plate. • 5. Incubate the compound/DMSO with the enzyme for 30 minutes at room temperature. • 6. Dispense 5 uL/well of 2× Substrate Solution to columns 1-24. • 7. Spin assay plates for ˜1 minute at 500 rpm. • 8. Stack the assay plates, covering the top plate. • 9. Incubate the assay plates at room temperature for 1 hour. • 1. Dispense 5 uL/well of the 3× Quench/Bead Mixture to columns 1-24. • 2. Seal the top of each assay plate with adhesive TopSeal. • 3. Spin assay plates for ˜1 minute at 500 rpm. • 4. […] • 1. Read the assay plates on the Viewlux Plate Reader utilizing the 613 nm emission filter with a 300 s read time. Reagent addition can be done manually or with automated liquid handler. The final DMSO concentration in this assay is 1%. The positive control is in column 6; negative control is in column 18. Final starting concentration of compounds is 100 μM. Percent inhibition was calculated relative to the DMSO control for each compound concentration and the resulting values were fit using standard IC50 fitting parameters within the ABASE data fitting software package.

[2] = biological target: T1, EZH2 within the PRC2 complex; experiment: Assay Protocol 2: EZH2 methyltransferase scintillation proximity assay, biotinylated histone H3 peptide substrate; format: biochemical; conditions: SPA, 3H-SAM, biotinylated unmethylated histone H3K27 peptide substrate, 5-member PRC2 complex
Experimental: Compounds contained herein were evaluated for their ability to inhibit the methyltransferase activity of EZH2 within the PRC2 complex. […] The peptides were captured on streptavidin-coated SPA beads and the resulting signal was read on a ViewLux plate reader. • 4. Prepare 10 mM stock of compounds from solid in 100% DMSO. • 5. […] Dispense 10 nL of compound from the dilution plate into reaction plates (Corning, 384-well polystyrene NBS, Cat#3673). Prepare the following solutions: • 7. 1× Base Buffer, 50 mM Tris-HCl, pH 8, 2 mM MgCl2: Per 1 L of base buffer, combine 1 M Tris-HCl, pH 8 (50 mL), 1 M MgCl2 (2 mL), and distilled water (948 mL). • 8. 1× Assay Buffer: Per 10 mL of 1× Assay Buffer, combine 1× Base Buffer (9.96 mL), 1 M DTT (40 uL), and 10% Tween-20 (1 uL) to provide a final concentration of 50 mM Tris-HCl, pH 8, 2 mM MgCl2, 4 mM DTT, 0.001% Tween-20. • 9. 2× Enzyme Solution: […] SPA Bead Solution: Per 1 mL of SPA Bead Solution, combine Streptavidin coated SPA beads (PerkinElmer, Cat# RPNQ0261, 40 mg) and 1× Assay Buffer (1 mL) to provide a working concentration of 40 mg/mL. • 11. 2× Substrate Solution: Per 10 mL of 2× Substrate Solution, combine 40 mg/mL SPA Bead Solution (375 uL), 1 mM biotinylated histone H3K27 peptide (200 uL), 12.5 uM 3H-SAM (240 uL; 1 mCi/mL), 1 mM cold SAM (57 uL), and 1× Assay Buffer (9.13 mL) to provide a final concentration of 0.75 mg/mL SPA Bead Solution, 10 uM biotinylated histone H3K27 peptide, 0.15 uM 3H-SAM (˜12 uCi/mL 3H-SAM), and 2.85 uM cold SAM. • 12. 2.67× Quench Solution: Per 10 mL of 2.67× Quench Solution, combine 1× Assay Buffer (9.73 mL) and 10 mM cold SAM (267 uL) to provide a final concentration of 100 uM cold SAM. • 3. […] Dispense 5 uL/well of 1× Assay Buffer to column 18 (low control reactions). • 11. Dispense 5 uL/well of 2× Substrate Solution to columns 1-24 (note: substrate solution should be mixed to ensure homogeneous bead suspension before dispensing into matrix reservoir). • 12. Dispense 5 uL/well of 2× Enzyme Solution to columns 1-17, 19-24. • 13. Incubate the reaction for 60 min at room temperature. • 5. Dispense 6 uL/well of the 2.67× Quench Solution to columns 1-24. • 6. Seal assay plates and spin for ˜1 min at 500 rpm. • 7. Dark adapt plates in the ViewLux instrument for 15-60 min. • 2. Read the assay plates on the Viewlux Plate Reader utilizing the 613 nm emission filter or clear filter (300 s exposure). Reagent addition can be done manually or with automated liquid handler. Percent inhibition was calculated relative to the DMSO control for each compound concentration and the resulting values were fit using standard IC50 fitting parameters within the ABASE data fitting software package.

## CCN(c1cccc2c1CC=CCOCc1cc(C)[nH]c(=O)c1CNC2=O)C1CCOCC1 (racemic) [Example 12, (E)- and (Z)-11-(ethyl(tetrahydro-2H-pyran-4-yl)amino)-3-methyl-7,10,16,17-tetrahydrobenzo[h]pyrido[4,3-c][1,6]oxaazacyclotridecine-1,15(2H,5H)-dione]
[1]
  IC50: 126 nM
[2]
  IC50: 200 nM

## Cc1cc2c(c(=O)[nH]1)CNC(=O)c1cc(Cl)cc(O[C@H]3CC[C@H](N)CC3)c1C/C=C/CC2 [Example 1, (E)-10-((trans-4-aminocyclohexyl)oxy)-12-chloro-3-methyl-5,6,15,16-tetrahydrobenzo[c]pyrido[4,3-j][1]azacyclododecine-1,14(2H,9H)-dione hydrochloride]
[1]
  IC50: 32 nM
[2]
  IC50: 100 nM

## Cc1cc2c(c(=O)[nH]1)CNC(=O)c1cc(Cl)cc(O[C@H]3CC[C@H](N(C)C)CC3)c1C/C=C/CC2 [Example 2, (E)-12-chloro-10-((trans-4-(dimethylamino)cyclohexyl)oxy)-3-methyl-5,6,15,16-tetrahydrobenzo[c]pyrido[4,3-j][1]azacyclododecine-1,14(2H,9H)-dione]
[1]
  IC50: 25 nM
[2]
  IC50: 126 nM

## Cc1cc2c(c(=O)[nH]1)CNC(=O)c1cc(Cl)cc(O[C@H]3CC[C@H](N(C)C)CC3)c1CCCCC2 [Example 3, 12-chloro-10-((trans-4-(dimethylamino)cyclohexyl)oxy)-3-methyl-6,7,8,9,15,16-hexahydrobenzo[c]pyrido[4,3-j][1]azacyclododecine-1,14(2H,5H)-dione]
[1]
  IC50: 100 nM
[2]
  IC50: 158 nM

## CCN(c1cccc2c1C/C=C/CCc1cc(C)[nH]c(=O)c1CNC2=O)C1CCOCC1 [Example 6, (E)-10-(ethyl(tetrahydro-2H-pyran-4-yl)amino)-3-methyl-5,6,15,16-tetrahydrobenzo[c]pyrido[4,3-j][1]azacyclododecine-1,14(2H,9H)-dione hydrochloride, 0.10 1,4-dioxane solvate]
[1]
  IC50: 100 nM
[2]
  IC50: 158 nM

## Cc1cc2c(c(=O)[nH]1)CNC(=O)c1cc(Cl)cc(O[C@H]3CC[C@H](N(C)C)CC3)c1C/C=C/CCC2 [Example 8, (E)-13-chloro-11-((trans-4-(dimethylamino)cyclohexyl)oxy)-3-methyl-5,6,7,10,16,17-hexahydro-1H-benzo[c]pyrido[4,3-k][1]azacyclotridecine-1,15(2H)-dione]
[1]
  IC50: 63 nM
[2]
  IC50: 251 nM

## CCN(c1cccc2c1C/C=C/CCc1cc(C)[nH]c(=O)c1CN(C)C2=O)C1CCOCC1 [Example 9, (E)-10-(ethyl(tetrahydro-2H-pyran-4-yl)amino)-3,15-dimethyl-5,6,15,16-tetrahydrobenzo[c]pyrido[4,3-j][1]azacyclododecine-1,14(2H,9H)-dione]
[1]
  IC50: 79 nM
[2]
  IC50: 126 nM

## CCN(c1cccc2c1C/C=C/CCCCc1cc(C)[nH]c(=O)c1CNC2=O)C1CCOCC1 [Example 14, (E)-12-(ethyl(tetrahydro-2H-pyran-4-yl)amino)-3-methyl-5,6,7,8,17,18-hexahydrobenzo[c]pyrido[4,3-l][1]azacyclotetradecine-1,16(2H,11H)-dione hydrochloride]
[1]
  IC50: 50 nM
[2]
  IC50: 158 nM

## CCN(c1cc(Cl)cc2c1C/C=C/CCc1cc(C)[nH]c(=O)c1CNC2=O)C1CCOCC1 [Example 17, (E)-12-chloro-10-(ethyl(tetrahydro-2H-pyran-4-yl)amino)-3-methyl-5,6,15,16-tetrahydrobenzo[c]pyrido[4,3-j][1]azacyclododecine-1,14(2H,9H)-dione]
[1]
  IC50: 32 nM
[2]
  IC50: 126 nM

## Cc1cc2c(c(=O)[nH]1)CNC(=O)c1cc(Cl)cc(OC(C)C)c1C/C=C/CC2 [Example 18, (E)-12-chloro-10-isopropoxy-3-methyl-5,6,15,16-tetrahydrobenzo[c]pyrido[4,3-j][1]azacyclododecine-1,14(2H,9H)-dione]
[1]
  IC50: 100 nM
[2]
  IC50: 316 nM

## CCN(c1cccc2c1C/C=C/C(CO)Cc1cc(C)[nH]c(=O)c1CNC2=O)C1CCOCC1 (stereo not shown) [Example 25, (E)-10-(ethyl(tetrahydro-2H-pyran-4-yl)amino)-6-(hydroxymethyl)-3-methyl-5,6,15,16-tetrahydrobenzo[c]pyrido[4,3-j][1]azacyclododecine-1,14(2H,9H)-dione]
[1]
  IC50: 158 nM

## CCN(c1cccc2c1C/C=C\C(CO)Cc1cc(C)[nH]c(=O)c1CNC2=O)C1CCOCC1 (stereo not shown) [Example 26, (Z)-10-(ethyl(tetrahydro-2H-pyran-4-yl)amino)-6-(hydroxymethyl)-3-methyl-5,6,15,16-tetrahydrobenzo[c]pyrido[4,3-j][1]azacyclododecine-1,14(2H,9H)-dione]
[1]
  IC50: 12600 nM

## CCN(c1cccc2c1CCCC(CO)Cc1cc(C)[nH]c(=O)c1CNC2=O)C1CCOCC1 (stereo not shown) [Example 27, 10-(ethyl(tetrahydro-2H-pyran-4-yl)amino)-6-(hydroxymethyl)-3-methyl-6,7,8,9,15,16-hexahydrobenzo[c]pyrido[4,3-j][1]azacyclododecine-1,14(2H,5H)-dione]
[1]
  IC50: 316 nM

## CCN(c1cccc2c1CCCC(O)CCc1cc(C)[nH]c(=O)c1CNC2=O)C1CCOCC1 (stereo not shown) [Example 28, 11-(ethyl(tetrahydro-2H-pyran-4-yl)amino)-7-hydroxy-3-methyl-5,6,7,8,9,10,16,17-octahydro-1H-benzo[c]pyrido[4,3-k][1]azacyclotridecine-1,15(2H)-dione]
[1]
  IC50: 631 nM

## CCN(c1cccc2c1C/C=C/CCc1cc(C)[nH]c(=O)c1CN(CCO)C2=O)C1CCOCC1 [Example 29, (E)-10-(ethyl(tetrahydro-2H-pyran-4-yl)amino)-15-(2-hydroxyethyl)-3-methyl-5,6,15,16-tetrahydrobenzo[c]pyrido[4,3-j][1]azacyclododecine-1,14(2H,9H)-dione]
[1]
  IC50: 1260 nM
